Tests used:
[1] = 101 kPa, Liquid; for viscosity: Capillary tube (Ostwald / Ubbelohde) method; for molar volume: Pycnometric method
[2] = xn = mol fraction of the nth substance listed; settings: 101 kPa, Liquid; for viscosity: Capillary tube (Ostwald / Ubbelohde) method; for molar volume: Pycnometric method

Cc1cccc(C)c1 [1,3-dimethylbenzene]
[1]
Settings | molar volume [m3/mol] | viscosity [mPa·s]
303.15 K | 0.0001241 | 0.5501
313.15 K | 0.0001254 | 0.4944
323.15 K | 0.0001266 | 0.4472

CCCCCCO [hexan-1-ol]
[1]
Settings | molar volume [m3/mol] | viscosity [mPa·s]
303.15 K | 0.0001259 | 3.829
313.15 K | 0.000127 | 2.879
323.15 K | 0.0001281 | 2.215

CCCCCCO [hexan-1-ol] + Cc1cccc(C)c1
[2], x1 = 1
Settings | molar volume [m3/mol] | viscosity [mPa·s]
303.15 K | 0.0001259 | 3.829
313.15 K | 0.000127 | 2.879
323.15 K | 0.0001281 | 2.215

Cc1cccc(C)c1 [1,3-dimethylbenzene] + CCCCCCO
[2]
Settings | molar volume, 303.15 K [m3/mol] | molar volume, 313.15 K [m3/mol] | molar volume, 323.15 K [m3/mol] | viscosity, 303.15 K [mPa·s] | viscosity, 313.15 K [mPa·s] | viscosity, 323.15 K [mPa·s]
x2 = 0 | 0.0001241 | 0.0001254 | 0.0001266 | 0.5501 | 0.4944 | 0.4472
x2 = 0.1 | 0.0001243 | 0.0001256 | 0.0001269 | 0.5979 | 0.5309 | 0.4743
x2 = 0.2 | 0.0001246 | 0.0001258 | 0.0001272 | 0.6825 | 0.5975 | 0.5277
x2 = 0.3 | 0.0001248 | 0.000126 | 0.0001273 | 0.7998 | 0.6894 | 0.6009
x2 = 0.4 | 0.0001249 | 0.0001262 | 0.0001275 | 0.9537 | 0.8068 | 0.6925
x2 = 0.5 | 0.0001251 | 0.0001263 | 0.0001276 | 1.161 | 0.9645 | 0.8141
x2 = 0.6 | 0.0001253 | 0.0001265 | 0.0001277 | 1.442 | 1.173 | 0.97
x2 = 0.7 | 0.0001254 | 0.0001266 | 0.0001278 | 1.833 | 1.457 | 1.179
x2 = 0.8 | 0.0001255 | 0.0001267 | 0.0001279 | 2.357 | 1.833 | 1.448
x2 = 0.9 | 0.0001257 | 0.0001269 | 0.000128 | 3.032 | 2.309 | 1.797

From the NIST ThermoML archive (doi:10.1021/je900219w)
